Test results from the supplement of paper PMC10307832.

Assays:
Test in all cases: relative viability (nuclei count vs DMSO), 5 days (fraction); higher = more cells survive
NCI-H1666 = system: NCI-H1666
Summary of the method: (§1)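 Lung cancer cell lines in 1536-well plates got either a single drug or a fixed anchor-drug dose together with five library-drug doses (not always all listed) in √10 steps, by pin tool, on the day after seeding. Nuclei were counted after 5 days, and relative viability is the treated-to-vehicle ratio of nuclei counts. Values are medians of duplicate plates.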

NCI-H2347 = system: NCI-H2347
Summary of the method: as §1

ABC-1 = system: ABC-1
Summary of the method: as §1

SW 1573 = system: SW 1573
Summary of the method: as §1

LK-2 = system: LK-2
Summary of the method: as §1

NCI-H1355 = system: NCI-H1355
Summary of the method: as §1

NCI-H727 = system: NCI-H727
Summary of the method: as §1

NCI-H1755 = system: NCI-H1755
Summary of the method: as §1

HCC-78 = system: HCC-78
Summary of the method: as §1

NCI-H1650 = system: NCI-H1650
Summary of the method: as §1

NCI-H358 = system: NCI-H358
Summary of the method: as §1

201T = system: 201T
Summary of the method: as §1

HCC-366 = system: HCC-366
Summary of the method: as §1

NCI-H838 = system: NCI-H838
Summary of the method: as §1

UMC-11 = system: UMC-11
Summary of the method: as §1

NCI-H2228 = system: NCI-H2228
Summary of the method: as §1

BEN = system: BEN
Summary of the method: as §1

NCI-H1734 = system: NCI-H1734
Summary of the method: as §1

NCI-H520 = system: NCI-H520
Summary of the method: as §1

LOU-NH91 = system: LOU-NH91
Summary of the method: as §1

NCI-H2009 = system: NCI-H2009
Summary of the method: as §1

NCI-H2405 = system: NCI-H2405
Summary of the method: as §1

Compound `O=C(O)CCCCC(CCSCc1ccccc1)SCc1ccccc1` (stereo not drawn) [CPI-613] + COc1cc2c(Oc3ccc(NC(=O)C4(C(=O)Nc5ccc(F)cc5)CC4)cc3F)ccnc2cc1OCCCN1CCOCC1 [Foretinib] (partner 0.25 µM) has a relative viability (NCI-H1666; first compound 5 µM) of 0.944, a relative viability (NCI-H1666; first compound 15.81 µM) of 0.901 and a relative viability (NCI-H1666; first compound 50 µM) of 0.971. The relative viability (NCI-H1666; first compound 158.11 µM) was 0.397, the relative viability (NCI-H1666; first compound 500 µM) was 0.206 and the relative viability (NCI-H2347; first compound 5 µM) was 0.7. It also gave a relative viability (NCI-H2347; first compound 15.81 µM) of 1.05, a relative viability (NCI-H2347; first compound 50 µM) of 1.09 and a relative viability (NCI-H2347; first compound 500 µM) of 1.05. The relative viability (ABC-1; first compound 5 µM) was 1.14, the relative viability (ABC-1; first compound 15.81 µM) was 0.929 and the relative viability (ABC-1; first compound 50 µM) was 0.996. The relative viability (ABC-1; first compound 158.11 µM) was 0.243, the relative viability (ABC-1; first compound 500 µM) was 0.0969 and the relative viability (SW 1573; first compound 5 µM) was 0.943. For the same compound, the relative viability (SW 1573; first compound 15.81 µM) was 0.807, the relative viability (SW 1573; first compound 50 µM) was 0.844 and the relative viability (SW 1573; first compound 158.11 µM) was 0.88. For the same compound, the relative viability (SW 1573; first compound 500 µM) was 0.871, the relative viability (LK-2; first compound 5 µM) was 1.45 and the relative viability (LK-2; first compound 15.81 µM) was 1.18. It also gave a relative viability (LK-2; first compound 50 µM) of 1.16, a relative viability (LK-2; first compound 158.11 µM) of 1.06 and a relative viability (LK-2; first compound 500 µM) of 0.126. The relative viability (NCI-H1355; first compound 5 µM) was 0.941, the relative viability (NCI-H1355; first compound 15.81 µM) was 0.94 and the relative viability (NCI-H1355; first compound 50 µM) was 0.998. For the same compound, the relative viability (NCI-H1355; first compound 158.11 µM) was 0.455, the relative viability (NCI-H1355; first compound 500 µM) was 0.137 and the relative viability (NCI-H727; first compound 5 µM) was 0.854. It also gave a relative viability (NCI-H727; first compound 15.81 µM) of 1.39, a relative viability (NCI-H727; first compound 50 µM) of 0.865 and a relative viability (NCI-H727; first compound 158.11 µM) of 0.572. For the same compound, the relative viability (NCI-H727; first compound 500 µM) was 0.47, the relative viability (NCI-H1755; first compound 5 µM) was 0.886 and the relative viability (NCI-H1755; first compound 15.81 µM) was 0.878. It also gave a relative viability (NCI-H1755; first compound 50 µM) of 0.898, a relative viability (NCI-H1755; first compound 158.11 µM) of 0.887 and a relative viability (NCI-H1755; first compound 500 µM) of 0.175. The relative viability (HCC-78; first compound 5 µM) was 0.497, the relative viability (HCC-78; first compound 15.81 µM) was 0.554 and the relative viability (HCC-78; first compound 50 µM) was 0.545. The relative viability (HCC-78; first compound 158.11 µM) was 0.52, the relative viability (HCC-78; first compound 500 µM) was 0.473 and the relative viability (NCI-H1650; first compound 5 µM) was 1.35. The relative viability (NCI-H1650; first compound 15.81 µM) was 0.905, the relative viability (NCI-H1650; first compound 50 µM) was 1.16 and the relative viability (NCI-H1650; first compound 158.11 µM) was 0.0583. For the same compound, the relative viability (NCI-H1650; first compound 500 µM) was 0.0222, the relative viability (NCI-H358; first compound 15.81 µM) was 0.648 and the relative viability (NCI-H358; first compound 50 µM) was 0.713. The relative viability (NCI-H358; first compound 158.11 µM) was 0.369, the relative viability (NCI-H358; first compound 500 µM) was 0.0356 and the relative viability (201T; first compound 5 µM) was 1.12. It also gave a relative viability (201T; first compound 15.81 µM) of 1.03, a relative viability (201T; first compound 50 µM) of 1.11 and a relative viability (201T; first compound 158.11 µM) of 0.329. For the same compound, the relative viability (201T; first compound 500 µM) was 0.0557, the relative viability (HCC-366; first compound 5 µM) was 0.963 and the relative viability (HCC-366; first compound 15.81 µM) was 0.962. The relative viability (HCC-366; first compound 50 µM) was 0.989, the relative viability (HCC-366; first compound 158.11 µM) was 0.322 and the relative viability (HCC-366; first compound 500 µM) was 0.0079. For the same compound, the relative viability (NCI-H838; first compound 5 µM) was 0.98, the relative viability (NCI-H838; first compound 15.81 µM) was 1.02 and the relative viability (NCI-H838; first compound 50 µM) was 1.03. For the same compound, the relative viability (NCI-H838; first compound 158.11 µM) was 0.657, the relative viability (NCI-H838; first compound 500 µM) was 0.116 and the relative viability (UMC-11; first compound 5 µM) was 0.992. For the same compound, the relative viability (UMC-11; first compound 15.81 µM) was 1.04, the relative viability (UMC-11; first compound 50 µM) was 0.995 and the relative viability (UMC-11; first compound 158.11 µM) was 0.169. The relative viability (UMC-11; first compound 500 µM) was 0.131, the relative viability (NCI-H2228; first compound 5 µM) was 0.719 and the relative viability (NCI-H2228; first compound 15.81 µM) was 0.948. The relative viability (NCI-H2228; first compound 50 µM) was 0.78, the relative viability (NCI-H2228; first compound 158.11 µM) was 0.332 and the relative viability (NCI-H2228; first compound 500 µM) was 0.088. It also gave a relative viability (BEN; first compound 5 µM) of 0.728, a relative viability (BEN; first compound 15.81 µM) of 0.443 and a relative viability (BEN; first compound 50 µM) of 0.602. The relative viability (BEN; first compound 158.11 µM) was 0.499, the relative viability (BEN; first compound 500 µM) was 0.508 and the relative viability (NCI-H1734; first compound 5 µM) was 0.792. The relative viability (NCI-H1734; first compound 15.81 µM) was 0.984, the relative viability (NCI-H1734; first compound 50 µM) was 0.859 and the relative viability (NCI-H1734; first compound 158.11 µM) was 0.332. It also gave a relative viability (NCI-H1734; first compound 500 µM) of 0.104, a relative viability (NCI-H520; first compound 5 µM) of 0.755 and a relative viability (NCI-H520; first compound 15.81 µM) of 0.784. It also gave a relative viability (NCI-H520; first compound 50 µM) of 0.623, a relative viability (NCI-H520; first compound 158.11 µM) of 0.523 and a relative viability (NCI-H520; first compound 500 µM) of 0.142. For the same compound, the relative viability (LOU-NH91; first compound 5 µM) was 0.863, the relative viability (LOU-NH91; first compound 15.81 µM) was 0.902 and the relative viability (LOU-NH91; first compound 50 µM) was 0.949. The relative viability (LOU-NH91; first compound 158.11 µM) was 0.963, the relative viability (LOU-NH91; first compound 500 µM) was 0.916 and the relative viability (NCI-H2009; first compound 5 µM) was 1.25. It also gave a relative viability (NCI-H2009; first compound 15.81 µM) of 1.16, a relative viability (NCI-H2009; first compound 50 µM) of 1.12 and a relative viability (NCI-H2009; first compound 158.11 µM) of 0.221. It also gave a relative viability (NCI-H2009; first compound 500 µM) of 0.019, a relative viability (NCI-H2405; first compound 5 µM) of 1.08 and a relative viability (NCI-H2405; first compound 15.81 µM) of 1.03. It also gave a relative viability (NCI-H2405; first compound 50 µM) of 0.995, a relative viability (NCI-H2405; first compound 158.11 µM) of 0.93 and a relative viability (NCI-H2405; first compound 500 µM) of 0.876.
